The values below come from patent EP4722207A1, “OXOISOINDOLINYL-SUBSTITUTED TETRAHYDROPYRIMIDINEDIONE DERIVATIVE AND USE THEREOF” (Gluetacs Therapeutics (Shanghai) Co., Ltd., priority 2023, dated 2024).

The structures appear in SMILES notation.

Format in all cases: cell-based
One test deals with T1, IKZF1 (Homo sapiens, UniProt Q13422+Q96SW2).
T1 construct: effects of the compounds of the present disclosure on the expression of target proteins in cells; endogenous in cells; host or cells: human PBMCs (hPBMCs)
Kind of test: Western-blot assay, substrate protein degradation in hPBMCs: IKZF1. The following applies: for IKZF1 substrate protein remaining %: compounds at 50 nM and 500 nM, 24 hours; for substrate protein remaining % IKZF1: 24 hours of compound treatment, 50 nM and 500 nM.

The target in the next test is T2, GSPT1 (Homo sapiens, UniProt P15170+Q96SW2).
T2 construct: effects of the compounds of the present disclosure on the expression of target proteins in cells; endogenous in cells; host or cells: human PBMCs (hPBMCs)
The test can be described thus: Western-blot assay, substrate protein degradation in hPBMCs: GSPT1. The following applies: for GSPT1 substrate protein remaining %: compounds at 50 nM and 500 nM, 24 hours; for substrate protein remaining % GSPT1: 24 hours of compound treatment, 50 nM and 500 nM.

The next test deals with T3, CK1α (Homo sapiens, UniProt P48729+Q96SW2).
T3 construct: effects of the compounds of the present disclosure on the expression of target proteins in cells; endogenous in cells; host or cells: human PBMCs (hPBMCs)
Kind of test: Western-blot assay, substrate protein degradation in hPBMCs: CK1α. As to conditions: for CK1α substrate protein remaining %: compounds at 50 nM and 500 nM, 24 hours; for substrate protein remaining % CK1α: 24 hours of compound treatment, 50 nM and 500 nM.

The target in another test is T4, IKZF2 (Homo sapiens, UniProt Q96SW2+Q9UKS7).
T4 construct: effects of the compounds of the present disclosure on the expression of target proteins in cells; endogenous in cells; host or cells: human PBMCs (hPBMCs)
Kind of test: Western-blot assay, substrate protein degradation in hPBMCs: IKZF2. The following applies: for IKZF2 substrate protein remaining %: compounds at 50 nM and 500 nM, 24 hours; for substrate protein remaining % IKZF2: 24 hours of compound treatment, 50 nM and 500 nM.

In the next test the target is T5, IKZF3 (Homo sapiens, UniProt Q96SW2+Q9UKT9).
T5 construct: effects of the compounds of the present disclosure on the expression of target proteins in cells; endogenous in cells; host or cells: human PBMCs (hPBMCs)
The test can be described thus: Western-blot assay, substrate protein degradation in hPBMCs: IKZF3. As to conditions: for IKZF3 substrate protein remaining %: compounds at 50 nM and 500 nM, 24 hours; for substrate protein remaining % IKZF3: 24 hours of compound treatment, 50 nM and 500 nM.

In the next test the target is T6, WEE1 (Homo sapiens, UniProt P30291+Q96SW2).
T6 construct: effects of the compounds of the present disclosure on the expression of target proteins in cells; endogenous in cells; host or cells: human PBMCs (hPBMCs)
The test can be described thus: Western-blot assay, substrate protein degradation in hPBMCs: WEE1. As to conditions: for WEE1 substrate protein remaining %: compounds at 50 nM and 500 nM, 24 hours; for substrate protein remaining % WEE1: 24 hours of compound treatment, 50 nM and 500 nM.

T2 sequence (P15170 whole entry): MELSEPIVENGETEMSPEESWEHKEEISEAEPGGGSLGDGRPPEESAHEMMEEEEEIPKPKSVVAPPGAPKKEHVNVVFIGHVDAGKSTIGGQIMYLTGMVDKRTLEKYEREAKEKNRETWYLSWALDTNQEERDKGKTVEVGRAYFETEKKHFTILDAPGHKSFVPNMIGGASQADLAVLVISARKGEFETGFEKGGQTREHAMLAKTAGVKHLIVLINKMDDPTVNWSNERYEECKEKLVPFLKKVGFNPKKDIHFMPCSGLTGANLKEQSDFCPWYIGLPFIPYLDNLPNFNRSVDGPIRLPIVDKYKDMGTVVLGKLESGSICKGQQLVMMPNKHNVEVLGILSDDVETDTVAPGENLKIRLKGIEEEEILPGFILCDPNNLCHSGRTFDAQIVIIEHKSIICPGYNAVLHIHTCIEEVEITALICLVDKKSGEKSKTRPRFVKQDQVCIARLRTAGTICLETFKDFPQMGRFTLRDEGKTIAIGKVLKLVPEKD
T2 sequence (Q96SW2 whole entry): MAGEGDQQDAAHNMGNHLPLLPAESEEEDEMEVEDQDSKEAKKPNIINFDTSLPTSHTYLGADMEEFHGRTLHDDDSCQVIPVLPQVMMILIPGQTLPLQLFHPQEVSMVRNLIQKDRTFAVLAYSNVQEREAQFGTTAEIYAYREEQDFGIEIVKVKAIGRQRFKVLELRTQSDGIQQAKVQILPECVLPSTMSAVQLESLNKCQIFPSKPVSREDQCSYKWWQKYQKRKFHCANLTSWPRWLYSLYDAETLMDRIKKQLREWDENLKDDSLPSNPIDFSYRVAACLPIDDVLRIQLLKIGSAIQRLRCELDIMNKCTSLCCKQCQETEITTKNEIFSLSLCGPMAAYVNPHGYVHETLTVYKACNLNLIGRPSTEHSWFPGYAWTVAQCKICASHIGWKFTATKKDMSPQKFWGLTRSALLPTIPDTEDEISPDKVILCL
T2 sequence (Q16531 whole entry partner): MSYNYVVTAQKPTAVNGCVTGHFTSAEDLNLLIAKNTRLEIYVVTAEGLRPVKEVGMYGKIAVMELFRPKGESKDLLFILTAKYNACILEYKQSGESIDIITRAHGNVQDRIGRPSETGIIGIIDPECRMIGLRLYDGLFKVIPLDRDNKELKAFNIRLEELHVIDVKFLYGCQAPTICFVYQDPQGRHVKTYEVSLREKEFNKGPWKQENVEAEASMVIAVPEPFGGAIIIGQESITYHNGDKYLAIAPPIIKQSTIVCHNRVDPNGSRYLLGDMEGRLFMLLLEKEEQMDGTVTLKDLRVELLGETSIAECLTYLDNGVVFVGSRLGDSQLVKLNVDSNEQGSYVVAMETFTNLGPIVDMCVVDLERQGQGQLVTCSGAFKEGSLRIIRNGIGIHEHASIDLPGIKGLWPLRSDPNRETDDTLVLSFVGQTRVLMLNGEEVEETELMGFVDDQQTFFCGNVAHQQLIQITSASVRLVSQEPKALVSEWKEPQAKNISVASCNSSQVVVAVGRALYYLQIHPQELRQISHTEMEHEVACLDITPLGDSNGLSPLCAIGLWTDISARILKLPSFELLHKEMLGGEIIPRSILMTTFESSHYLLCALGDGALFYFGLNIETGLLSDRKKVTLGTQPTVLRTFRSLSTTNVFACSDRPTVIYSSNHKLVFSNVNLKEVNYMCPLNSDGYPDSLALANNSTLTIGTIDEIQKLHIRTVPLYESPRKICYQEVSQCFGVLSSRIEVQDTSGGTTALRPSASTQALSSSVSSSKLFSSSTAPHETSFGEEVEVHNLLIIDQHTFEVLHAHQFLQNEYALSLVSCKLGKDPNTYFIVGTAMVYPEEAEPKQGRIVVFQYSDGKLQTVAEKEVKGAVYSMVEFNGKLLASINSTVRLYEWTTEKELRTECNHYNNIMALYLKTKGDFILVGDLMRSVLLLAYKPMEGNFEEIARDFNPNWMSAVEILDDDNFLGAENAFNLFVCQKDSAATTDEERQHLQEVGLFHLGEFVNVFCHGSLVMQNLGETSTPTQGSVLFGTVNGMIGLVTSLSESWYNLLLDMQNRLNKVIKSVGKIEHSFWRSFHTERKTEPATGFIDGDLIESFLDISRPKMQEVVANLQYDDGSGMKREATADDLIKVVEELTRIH
T4 sequence (Q9UKS7 whole entry): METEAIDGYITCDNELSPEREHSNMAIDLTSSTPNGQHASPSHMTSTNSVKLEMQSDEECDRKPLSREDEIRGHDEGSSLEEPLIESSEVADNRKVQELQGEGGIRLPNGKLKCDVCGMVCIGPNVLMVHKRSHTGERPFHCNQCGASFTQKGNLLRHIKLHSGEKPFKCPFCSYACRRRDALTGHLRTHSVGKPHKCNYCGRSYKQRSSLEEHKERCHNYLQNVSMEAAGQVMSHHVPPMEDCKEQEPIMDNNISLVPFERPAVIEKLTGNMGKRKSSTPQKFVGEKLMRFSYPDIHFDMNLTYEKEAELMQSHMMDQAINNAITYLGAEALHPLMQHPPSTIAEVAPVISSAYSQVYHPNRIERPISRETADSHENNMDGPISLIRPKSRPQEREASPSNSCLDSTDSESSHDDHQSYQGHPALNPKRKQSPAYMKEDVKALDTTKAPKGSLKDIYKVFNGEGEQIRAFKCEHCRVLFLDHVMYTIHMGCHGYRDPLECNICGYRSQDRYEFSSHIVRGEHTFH
T4 sequence (Q96SW2 whole entry): as the sequence (Q96SW2 whole entry) above
T4 sequence (Q16531 whole entry partner): as the sequence (Q16531 whole entry partner) above
T5 sequence (Q9UKT9 whole entry): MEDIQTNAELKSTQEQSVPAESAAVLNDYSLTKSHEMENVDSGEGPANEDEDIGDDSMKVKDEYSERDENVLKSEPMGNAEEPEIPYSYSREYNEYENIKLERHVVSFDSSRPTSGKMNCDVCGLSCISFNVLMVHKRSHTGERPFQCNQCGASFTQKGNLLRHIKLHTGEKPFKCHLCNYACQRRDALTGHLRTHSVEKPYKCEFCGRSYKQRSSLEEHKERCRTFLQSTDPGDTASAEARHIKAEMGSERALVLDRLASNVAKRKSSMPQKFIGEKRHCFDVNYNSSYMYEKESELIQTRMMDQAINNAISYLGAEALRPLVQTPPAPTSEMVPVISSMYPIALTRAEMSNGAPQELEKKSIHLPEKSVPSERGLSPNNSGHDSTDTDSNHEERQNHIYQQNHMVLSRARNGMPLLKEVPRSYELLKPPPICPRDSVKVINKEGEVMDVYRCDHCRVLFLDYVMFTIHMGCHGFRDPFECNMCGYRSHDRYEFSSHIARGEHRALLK
T5 sequence (Q96SW2 whole entry): as the sequence (Q96SW2 whole entry) above
T5 sequence (Q16531 whole entry partner): as the sequence (Q16531 whole entry partner) above
T1 sequence (Q13422 whole entry): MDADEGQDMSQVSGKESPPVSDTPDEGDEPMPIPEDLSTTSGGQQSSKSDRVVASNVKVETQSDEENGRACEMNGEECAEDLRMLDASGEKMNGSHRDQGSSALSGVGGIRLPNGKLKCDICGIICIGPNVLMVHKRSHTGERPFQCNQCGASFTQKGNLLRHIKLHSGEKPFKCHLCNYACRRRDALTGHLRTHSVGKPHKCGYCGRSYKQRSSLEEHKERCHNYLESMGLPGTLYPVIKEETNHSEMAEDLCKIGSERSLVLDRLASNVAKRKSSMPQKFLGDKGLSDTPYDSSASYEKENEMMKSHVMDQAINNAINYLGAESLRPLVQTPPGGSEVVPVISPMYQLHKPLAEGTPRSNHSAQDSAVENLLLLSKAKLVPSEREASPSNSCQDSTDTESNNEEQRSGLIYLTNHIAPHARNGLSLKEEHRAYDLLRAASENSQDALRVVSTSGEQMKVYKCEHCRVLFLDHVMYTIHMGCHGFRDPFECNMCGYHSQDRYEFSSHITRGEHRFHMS
T1 sequence (Q96SW2 whole entry): as the sequence (Q96SW2 whole entry) above
T1 sequence (Q16531 whole entry partner): as the sequence (Q16531 whole entry partner) above
T6 sequence (P30291 whole entry): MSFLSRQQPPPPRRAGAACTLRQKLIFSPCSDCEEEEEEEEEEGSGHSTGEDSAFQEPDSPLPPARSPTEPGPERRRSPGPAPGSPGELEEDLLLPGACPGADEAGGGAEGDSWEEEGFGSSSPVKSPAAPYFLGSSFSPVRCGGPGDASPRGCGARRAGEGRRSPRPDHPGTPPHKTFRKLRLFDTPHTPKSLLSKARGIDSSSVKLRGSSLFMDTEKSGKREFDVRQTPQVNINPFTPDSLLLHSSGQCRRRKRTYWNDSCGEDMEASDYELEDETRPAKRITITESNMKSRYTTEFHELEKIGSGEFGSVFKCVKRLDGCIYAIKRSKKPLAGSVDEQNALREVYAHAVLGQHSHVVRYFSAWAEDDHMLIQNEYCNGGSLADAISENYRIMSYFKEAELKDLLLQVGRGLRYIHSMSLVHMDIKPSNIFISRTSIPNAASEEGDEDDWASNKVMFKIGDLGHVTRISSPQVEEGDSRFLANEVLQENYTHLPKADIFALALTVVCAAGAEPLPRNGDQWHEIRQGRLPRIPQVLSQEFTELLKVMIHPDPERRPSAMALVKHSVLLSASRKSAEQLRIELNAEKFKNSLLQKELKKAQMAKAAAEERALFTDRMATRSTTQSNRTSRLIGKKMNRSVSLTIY
T6 sequence (Q96SW2 whole entry): as the sequence (Q96SW2 whole entry) above
T6 sequence (Q16531 whole entry partner): as the sequence (Q16531 whole entry partner) above

With `O=C1CCN(N2Cc3cc(CN4CCN(c5cc(Cl)nnc5Cl)CC4)ccc3C2=O)C(=O)N1` [GT-07030, 1-(5-((4-(3,6-dichloropyridazin-4-yl)piperazin-1-yl)methyl)-1-oxoisoindolin-2-yl)dihydropyrimidine-2,4(1H,3H)-dione], on IKZF1, the “IKZF1 substrate protein remaining %” value is on record as “B ("B" is defined as 80%< substrate protein remaining %≤ 100%)”. For the same molecule, the “GSPT1 substrate protein remaining %” value at GSPT1 is given as “B ("B" is defined as 80%< substrate protein remaining %≤ 100%)”. Also, the “CK1α substrate protein remaining %” value at CK1α is reported as “B ("B" is defined as 80%< substrate protein remaining %≤ 100%)”. Besides, the “IKZF2 substrate protein remaining %” value on IKZF2 is “A ("A" is defined as 0% ≤ substrate protein remaining % ≤ 80%)”. At IKZF3, the “IKZF3 substrate protein remaining %” value is on record as “B ("B" is defined as 80%< substrate protein remaining %≤ 100%)”. Also, the “WEE1 substrate protein remaining %” value at WEE1 is “B ("B" is defined as 80%< substrate protein remaining %≤ 100%)”.
For `O=C1CCN(N2Cc3cc(CN4CCC(c5ccoc5)CC4)ccc3C2=O)C(=O)N1` [GT-07375, 1-(5-((4-(furan-3-yl)piperidin-1-yl)methyl)-1-oxoisoindolin-2-yl)dihydropyrimidine-2,4(1H,3H)-dione], the “substrate protein remaining % IKZF1” value on IKZF1 is “B (80%< substrate protein remaining %≤ 100%)”. Further, the “substrate protein remaining % GSPT1” value at GSPT1 is “A (0% ≤ substrate protein remaining % ≤ 80%)”. Also, on CK1α, the “substrate protein remaining % CK1α” value was “A (0% ≤ substrate protein remaining % ≤ 80%)”. Moreover, the “substrate protein remaining % IKZF2” value on IKZF2 is “B (80%< substrate protein remaining %≤ 100%)”. Further, the “substrate protein remaining % IKZF3” value at IKZF3 is listed as “B (80%< substrate protein remaining %≤ 100%)”. For the same molecule, the “substrate protein remaining % WEE1” value at WEE1 is recorded as “B (80%< substrate protein remaining %≤ 100%)”.
Take `O=C1CCN(N2C(=O)c3ccc(CN4CCC(c5n[nH]c6cc(F)ccc56)CC4)cc3C2=O)C(=O)N1` [GT-07530, 2-(2,4-dioxotetrahydropyrimidin-1(2H)-yl)-5-((4-(6-fluoro-1H-indazol-3-yl)piperidin-1-yl)methyl)isoindoline-1,3-dione]: the “substrate protein remaining % IKZF1” value on IKZF1 is “B (80%< substrate protein remaining %≤ 100%)”. Moreover, the “substrate protein remaining % GSPT1” value at GSPT1 is given as “A (0% ≤ substrate protein remaining % ≤ 80%)”. Moreover, on CK1α, the “substrate protein remaining % CK1α” value is “A (0% ≤ substrate protein remaining % ≤ 80%)”. Also, the “substrate protein remaining % IKZF2” value on IKZF2 was “B (80%< substrate protein remaining %≤ 100%)”. Also, the “substrate protein remaining % IKZF3” value on IKZF3 is given as “B (80%< substrate protein remaining %≤ 100%)”. Further, the “substrate protein remaining % WEE1” value on WEE1 is “A (0% ≤ substrate protein remaining % ≤ 80%)”.
Turning to `O=C1CCN(N2C(=O)c3ccc(CN4CCN(c5nccc(F)c5F)CC4)cc3C2=O)C(=O)N1` [GT-07162, 5-((4-(3,4-difluoropyridin-2-yl)piperazin-1-yl)methyl)-2-(2,4-dioxotetrahydropyrimidin-1(2H)-yl)isoindoline-1,3-dione], at IKZF1, the “IKZF1 substrate protein remaining %” value is given as “B ("B" is defined as 80%< substrate protein remaining %≤ 100%)”. For the same molecule, the “GSPT1 substrate protein remaining %” value at GSPT1 is recorded as “A ("A" is defined as 0% ≤ substrate protein remaining % ≤ 80%)”. On CK1α, the “CK1α substrate protein remaining %” value is given as “A ("A" is defined as 0% ≤ substrate protein remaining % ≤ 80%)”. The “IKZF2 substrate protein remaining %” value at IKZF2 is on record as “A ("A" is defined as 0% ≤ substrate protein remaining % ≤ 80%)”. Moreover, at IKZF3, the “IKZF3 substrate protein remaining %” value is recorded as “B ("B" is defined as 80%< substrate protein remaining %≤ 100%)”. In addition, the “WEE1 substrate protein remaining %” value on WEE1 is listed as “B ("B" is defined as 80%< substrate protein remaining %≤ 100%)”.
